In publication PMC7822123, “A Chemosensory Protein Detects Antifeedant in Locust (Locusta migratoria)” (Insects, 2020):
Entries after “also recorded” stand apart in the source; their conditions may differ. Where two headings read alike, the source gives them in different places.

Legend:
[1] = target: T1, recombinant LmigCSPIII (Locusta migratoria, UniProt Q3LB86); assay: Fluorescent competitive binding assay with 1-NPN as reporter; conditions: for binding affinity to LmigCSPIII (in words): among 78 tested compounds
T1 sequence (Q3LB86 entry or part of it): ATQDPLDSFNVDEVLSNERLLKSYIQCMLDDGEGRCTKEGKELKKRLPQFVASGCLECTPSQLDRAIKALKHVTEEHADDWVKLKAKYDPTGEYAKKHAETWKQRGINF
Method: Compounds (Table 2) used in the binding assay were purchased from Sigma (St. Louis, MO, USA) and were of reagent grade. Ligand binding specificity was measured with a fluorescent assay on an FS-55 emission fluorescence spectrometer (Perkin-Elmer, Waltham, MA, USA), as previously described. […] The recombinant protein was dissolved in 50 mM Tris-Buffer (pH 7.4) and titrated with aliquots of 1 mM methanol solutions of the ligands to final concentrations of […]. The florescent probe 1-NPN was excited at 337 nm and emission spectra were recorded between 380 nm and 440 nm. We used Graphpad Prism 5 software (Graphpad Software, San Diego, CA, USA) to calculate dissociation constants and draw the binding curves.

[2] = system: desert locust; parameters: method as in PMID 12770479; conditions: 7 µg/g body weight; cited from earlier work
[3] = system: Locusta migratoria fourth instar nymphs; assay: Dual-choice feeding assay, feeding response with intact or excised antennae; type: in vivo
Method: For the role of antenna or mouthparts in the detection of AMCAL, a dual-choice experiment was performed. Newly molted fourth instar locusts of similar weights were anesthetized on ice for several minutes. Antennae were carefully removed with fine scissors, and then the locusts were fed with fresh corn leaves for 24 h. The locusts were then placed in feeding boxes, each of which contained two pieces of corn leaves of the same size of 4 × 3 cm, one treated with AMCAL in solvent, and the other one treated with solvent alone. The two pieces of corn leaves were placed about 12 cm apart. Feeding response (FR) was defined as follows: a leaf that was ingested, regardless of amount, was scored as 1, whereas no consumption was scored as 0. The experimental duration was about 1 h. When approximately 50% of the control foliage had been consumed, the experiment was terminated, and the feeding amount was determined as described above.

[4] = system: Locusta migratoria nymphs; conditions: third instar, 100 μg/cm^2, after 3 or 4 days, vs control, p < 0.001
[5] = system: Locusta migratoria fourth instar nymphs; assay: Dual-choice feeding assay with LmigCSPIII knockdown (dsRNA) and H2O-injected locusts; type: in vivo
Method: (§1) For the dual-choice experiment, the feeding deterrence index (FDI) was calculated using the formula: FDI = (C − T)/(C + T), where C and T indicated control and treated leaf consumption weights, respectively. For non-choice experiment, the FDI was calculated using the formula: FDI = (C − T)/C. A regression curve line against feeding deterrence index was created by Graphpad Prism 9 software (Graphpad Software, San Diego, CA, USA). The DC50 was defined as the concentration of AMCAL that halved the value of the feeding deterrence index.
Double-stranded RNA was synthesized using the T7 RiboMAX™Express RNAi System (Promega, Madison, WI, USA), according to the manufacturer’s protocol. Briefly, we designed degenerate primers with a T7 promoter (Table 1) at the 5′ end based on an alignment of multiple LmigCSPIII sequences. The PCR-amplified fragment was purified and used as a template in the transcription reactions. After removing the DNA template and single-stranded RNA using a nuclease, we quantified the newly synthesized dsRNA and adjusted its concentration to 2.5 µg/µL. Locusts were anaesthetized on ice for easier handling during the injection process. dsRNA (2 µL) or DEPC (Diethy Pyrocarbonate) treated water (2 µL, Sangon Biotech) was injected into the dorsal intrasegmental membrane between the third and fourth abdominal segments of newly-molted third or fourth instar locusts using a microsyringe (Narishige, Tokyo, Japan), similarly to previous experiments.
The treatments and calculation methods for detecting the effects of suppression of LmigCSPIII on locusts are similar to in the dual-choice experiment.
To determine the effects of RNAi of LmigCSPIII on its role in detecting AMCAL, we created mutants by injecting with dsRNA of LmigCSPIII into fourth instar nymphs within 2 days after molting. These locusts were then provided with the corn leaves treated with AMCAL or solvent 72 h after injection. The duration of the experiment was 2 h.

[6] = system: Locusta migratoria fourth instar nymphs; assay: Feeding bioassay: amount consumed and feeding deterrence index; type: in vivo
Method: New emerged fourth instar locust nymphs were starved 2 h before being introduced into a transparent plastic box (14 cm diameter, 8 cm high). For the non-choice experiment, the locusts were then supplied with two pieces of corn leaf (3 × 5 cm) of the same weight. One piece of the leaf was treated with an acetone solution of α-amylcinnamaldehyde (AMCAL) after the acetone evaporated completely, and the control leaf was just treated with same amount of actone. The natural concentrations of AMCAL found in non-host plants is usually less than 0.1% in weight. According to this, acetone solutions of AMCAL at concentrations of […] were used to treat corn leaves with a final concentration of 100 μg/cm^2, 50 μg/cm^2, 10 μg/cm^2, or 1 μg/cm^2, respectively.
Food consumption (S) was determined by the fresh/dry weight method as follows: a fresh corn leaf was cut in half from the main vein and weighted separately; one half was dried at 100 °C for 2 h to calculate fresh/dry weight ratio, calculated as R [34]; the other half, whose fresh weight was S1, was reserved for the feeding experiment. After feeding duration, the residual consumed leaf was dried and weighed as above, and the dry weight was labelled as S2. Food consumption was calculated as: S = S1/R − S2.
as §1

[7] = target: T1, recombinant LmigCSPIII; assay: Fluorescent competitive binding assay with 1-NPN as reporter; conditions: at a concentration of 10 µM
[8] = criterion for being regarded as able to bind, Figure 4, read-out: IC50 (concentration of ligand that halved the initial fluorescence of 1-NPN)

Structure (SMILES)	IC50 [1, 8] [µM]	IC50 [1] [µM]	also measured
Cc1cnc(C)cn1 [2,5-Dimetylpyrazine]	< 20	–	–
Nc1cccc2cc3ccccc3cc12 [1-aminoanthracene]	–	–	binding affinity to LmigCSPIII (in words) [1]: strongest affinity
C/C=C(\C)C(=O)O[C@H]1C[C@@H](OC(C)=O)[C@@]2(C(=O)OC)CO[C@H]3[C@@H](O)[C@@](C)([C@]45O[C@@]4(C)[C@H]4C[C@@H]5O[C@@H]5OC=C[C@@]54O)[C@H]4[C@]1(CO[C@]4(O)C(=O)OC)[C@@H]32 [azadirachtin]	–	–	physiological effects in the desert locust [2]: reduces fitness and fertility, and interferes with molting
CCCCC/C(C=O)=C/c1ccccc1 [AMCAL, α-amylcinnamaldehyde]	< 20	–	binding affinity to LmigCSPIII (in words) [1]: strongest affinity; also recorded: highest affinity; Feeding response (FR) to treated leaves ([3]; 50 μg/cm^2, antennae excised): 45%; Feeding response (FR) to treated leaves ([3]; 50 μg/cm^2, antennae intact): 47%; weight increase of nymphs [4]: significantly less than that of the control group; feeding deterrence index (FDI) ([5]; 1 μg/cm^2, RNAi group): −2%; feeding deterrence index (FDI) ([5]; 10 μg/cm^2, control group (H2O-injected locusts)): 50%; feeding deterrence index (FDI) ([5]; 10 μg/cm^2, locusts injected with dsRNA of LmigCSPIII): 22%; feeding deterrence index (FDI) ([5]; 50 μg/cm^2, RNAi group): 69%; mean consumption of food containing the chemical ([6]; 1 μg/cm^2, p > 0.05, Dunnett test): slight and insignificant decrease; mean consumption of food containing the chemical ([6]; 10 μg/cm^2, p < 0.01, Dunnett test): Significant feeding inhibition; DC50 (concentration that halved the feeding deterrence index) ([6]; from regression curve of feeding deterrence index, Figure 5D): 12 μg/cm^2
CCCCOC(=O)c1ccccc1C(=O)OCCCC [Dibutyl phthalate]	–	< 20	–
CCCCCCCCCCCCCCCCO [Hexadecanol]	< 20	–	–
CC(C)CCO [3-Methyl-1-butanol]	< 20	–	Kd ([1]; calculated from IC50 of 1-NPN displacement, read-out: dissociation constant (KD) of competitor): 6.02 ± 0.17 µM
CCCCCCCCCCCCCCCO [Pentadecanol]	< 20	–	–
CCCCCCCCCCCCCCCCCO [Heptadecanol]	< 20	–	–
CCCCCC(C)=O [2-heptanone]	< 20	–	displacement of 1-NPN from LmigCSPIII [7]: able to displace 1-NPN
O=Cc1ccccc1 [Benzaldehyde]	–	< 20	–
CCC/C=C/C=O [trans-2-hexenal, trans-2-Hexenal]	–	< 20	displacement of 1-NPN from LmigCSPIII [7]: able to displace 1-NPN
CCCCCCCC/C=C\CCCCCCCC(N)=O [oleamide, Oleamide]	–	< 20	binding affinity to LmigCSPIII (in words) [1]: quite high binding affinity
CC(O)c1ccccc1 (racemic) [DL-sec-phenethyl alcohol]	< 20	–	–
N#CCc1ccccc1 [Benzeneacetonitrile]	–	< 20	–
C=C(C)C(=O)OCCCCCCCCCCCC [Dodecyl 2-methylacrylate]	< 20	–	–
CCOC(=O)c1ccccc1C(=O)OCC [Diethyl phthalate]	–	< 20	–
OC1CCCCC1 [Cyclohexanol]	–	< 20	–
c1ccc(Nc2cccc3ccccc23)cc1 [1-NPN, N-phenyl-1-naphthylamine, reference compound]	–	–	Kd [1]: 3.3 µM
COc1ccccc1O [Guaicacol]	< 20	–	–
Oc1ccccc1 [Phenol]	–	< 20	–
